Reference: patent publication US6743892B1, “Molecules that home to a selected organ in vivo” (La Jolla Cancer Research Foundation, priority 1995, dated 2004)
Bridge positions count the residues as written; N and C are the ends. Ends that are not written are not given here.

What was measured:
[1] = system: brain; assay: Peptide competition of phage homing to brain; format: in vivo, mice; settings: 100 μg synthetic cyclic peptide injected with 1×10^8 TU phage
Description: In order to confirm the specificity of a peptide for directing homing to a selected organ, peptide competition experiments were performed. The cyclic peptide, CLSSRLDAC (SEQ ID NO: 3), which is one of the brain homing peptides (see Table 1) was synthesized (Immunodynamics; La Jolla Calif.) and purified by HPLC. The effect on the homing of phage expressing CLSSRLDAC (SEQ ID NO: 3), CENWWGDVC (SEQ ID NO: 2) or […] (SEQ ID NO: 16) to the brain was examined in order to determine whether co-administration of the synthetic peptide affected homing of the phage.
Phage expressing CLSSRLDAC (SEQ ID NO: 3), CENWWGDVC (SEQ ID NO: 2) or […] (SEQ ID NO: 16) were titrated to the same concentration and 1×10^8 TU was injected into mice alone, or with 100 μg purified synthetic cyclic CLSSRLDAC (SEQ ID NO: 3) peptide. The synthetic CLSSRLDAC (SEQ ID NO: 3) peptide inhibited the homing of phage expressing CLSSRLDAC (SEQ ID NO: 3) by about 60%.

[2] = system: brain; assay: 125I-peptide/RBC complex homing to brain and kidney, with or without unlabeled peptide; format: in vivo, mouse; settings: 10 mM unlabeled peptide coadministered
Description: The synthetic cyclic CLSSRLDAC (SEQ ID NO: 3) peptide (1 mg) was labeled with iodine-125 using the Bolton and Hunter reagent (Amersham; Arlington Heights Ill.). Labeled peptide was purified by reverse phase HPLC on Sep-Pak™ cartridges (Waters, Millipore Corp.; Milford Pa.) and the ^125I-peptide (200 μg) was coupled to 1 ml glutaraldehyde-stabilized sheep RBC (Sigma Chemical Co.; St. Louis Mo.) according to the manufacturer's instructions.
After 2 min, each mouse was perfused through the heart with 50 ml DMEM and the brain and kidney were removed and assayed for radioactivity.
Approximately twice as much of the CLSSRLDAC/RBC complex (SEQ ID NO: 3) homed to brain than to kidney. […] Coadministration of unlabeled CVRLNSLAC (SEQ ID NO: 43) had no effect on selective homing of the complex to brain and no effect on the non-specific localization of the complex in the kidney.

[3] = system: brain; assay: Brain homing activity (test not described); settings: in vivo

| Sequence | effect on homing to brain of CENWWGDVC phage [1] | inhibition of homing to brain of phage expressing CLSSRLDAC [1] | effect of coadministration on brain homing of the CLSSRLDAC/RBC complex [2] | effect of coadministration on localization of the CLSSRLDAC/RBC complex in the kidney [2] | brain homing activity [3] |
| --- | --- | --- | --- | --- | --- |
| CLSSRLDAC (disulfide 1-9 (inferred)) | did not affect | about 60% | essentially completely inhibited | no effect | – |
| CVRLNSLAC [reference compound] | – | – | no effect | no effect | no brain homing activity |
